Assay [1] relates to PC-12. The experiment in a line: Induction of neurite outgrowth in rat PC12 cells at 100 uM after 2 days by phase-contrast microscopy. The assay is classed as functional, cell-based.
The subject of assay [2] is HeLa. Nature of the assay: Cytotoxicity against human HeLa cells at 50 ug/mL after 3 days by MTT assay. It counts as functional, cell-based. (Tetrazolium assays rely on reduction of a dye to a coloured formazan, in cell work by metabolically active cells.)
A short description of assay [3]: Inhibition of Na(+)/K(+) ATPase.
Assay [4] relates to PC-12. The experiment in a line: Induction of neurite outgrowth in rat PC12 cells. The assay is classed as functional, cell-based.

The source made the active and inactive calls. No cut-off for these calls is given here.

With `C=C1CO[C@H]2[C@@H]3C(=O)C[C@@H](C(C)C)[C@]3(C)C[C@H]3OC(=O)C[C@@]3(C)[C@@]12O`, the result in assay [1] was Active. For the same compound, the outcome in assay [2] was inactive.

For the compound `C=C(CO)[C@]12C=C3C(=O)C[C@@H](C(C)C)[C@]3(C)C[C@@H](O)[C@@]1(C)CC(=O)O2`, the result in assay [1] was Active. For the same compound, the result in assay [2] was inactive.

As to `O=C(O)/C(=C1/OCO/C1=C(/C(=O)O)c1ccccc1)c1ccccc1`, the outcome in assay [3] was Active.

In the case of `C=C(CO)[C@@]1(O)C=C2C(=O)C[C@@H](C(C)C)[C@]2(C)C[C@H]2OC(=O)C[C@]21C`, in assay [1], the outcome was Active. Further, the outcome in assay [2] was inactive.

In the case of `CC(C)C1=C2[C@H]3CC=C(C=O)CC(=O)[C@]3(C)CC[C@@]2(C(=O)O)CC1`, the result in assay [4] was inactive.

For `CO[C@H]1[C@H]2[C@@H](O)O[C@@H]1[C@]1(C)CC[C@@]3(C(=O)O)CCC(C(C)C)=C3[C@H]1C[C@H]2OC`, the result in assay [4] was inactive.

(Values after ChEMBL document CHEMBL1147264, “Tricholomalides A-C, new neurotrophic diterpenes from the mushroom Tricholoma sp” (J Nat Prod, 2003).)
